Experiment: Body and organ weights of rats with bile duct occlusion (BDO) or sham operation
Format: in vivo
Method: Female adult wistar rats, average weight 206±19 g, underwent the following microsurgical procedure under an operating microscope (OPMI 6-2, Zeiss, Germany) (B. Gerling, M. Becker, J. Waldschmidt, D. Schuppan (1996). J. Hepatol. 25:79-84; G. Boigk, L. Stroedter, H. Herbst H, et al. (1997). Hepatology 26:643-639.): 1. midline abdominal incision following anaesthesia with 100 mg/kg ketamine-hydroochloride (Ketanest®, Parke-Davis, Germany) and 10 mg/kg 5,6-dihydro-2-(2,6-xylidino)-4H-1,3-thiazine-hydrochloride (Rompun®, Bayer, Germany); 2. dissection of the common bile duct, insertion of a teflon catheter (Abbocath -T 26 G, venisystems, U.S.A.) and placement of a distal complete and a proximal incomplete ligature with 5-0 silk (Permahand , Ethicon, Germany); 3. retrograde injection of sodium-amidotrizoate (Ethibloc®, Ethicon Germany) at a dose of 0.02 ml/100 g body weight; 4. removal of the catheter, closure of the proximal ligature, scission of the bile duct between the ligatures and wound closure. After bile duct occlusion (BDO), animals received normal chow (Altromin®, Lage, Germany) and were allowed free access to water. […] The following therapeutic groups were formed: 1. BDO and LU at 80 mg/kg/d for 6 weeks (BDO 80/1-6:n=20); 2. BDO and LU at 80 mg/kg/d from week 4-6 of BDO (BDO 80/4-6:n=20); 3. […]
Early mortality (within 1 h to 3 days) in rats with BDO was due to local infection and amounted to 9%. […] After 6 weeks rats were sacrificed under ketanest(rompun-anaesthesia by puncture of the right ventricle and exsanguination. Heart, liver, spleen and kidneys were weighed, and 1-2 g pieces of the left and the right liver lobes fixed in 4% formalin for histology and hydroxyproline (HYP) determinations.

[1] = BDO/LU 80/1-6: BDO, LU 80 mg/kg/d week 1-6, n = 10
[2] = BDO/LU 80/4-6: BDO, LU 80 mg/kg/d week 4-6, n = 14
[3] = Sham/LU: sham operation, LU 80 mg/kg/d for 6 weeks, n = 10

COc1cc(OC)nc(O[C@H](C(=O)O)C(OC)(c2ccccc2)c2ccccc2)n1 [LU]
B.W. [1]: 293.0 ± 32.89 g | Liver W. [1]: 24.73 ± 4.47 g | Spleen W. [1]: 1.78 ± 0.47 g | B.W. [2]: 259.1 ± 30.2 g | Liver W. [2]: 23.01 ± 5.33 g | Spleen W. [2]: 1.62 ± 0.46 g | B.W. [3]: 305.8 ± 23.40 g | Liver W. [3]: 11.98 ± 1.95 g | Spleen W. [3]: 0.73 ± 0.08 g | Liver and spleen weights (rats with BDO): reduced liver and spleen weights dose-dependently | Weights of kidneys, heart and lungs (rats with BDO, high and low dose groups (not shown)): neither nor the low dose groups demonstrated significant differences

— patent publication US20020098186A1, “Use of endothelin inhibitors for treatment or prevention of fibrotic disorders” (priority 1999, published 2002)
